US20220031607A1, “INJECTION COMPOSITION CONTAINING FAB I INHIBITOR, AND PREPARATION METHOD THEREFOR” (CRYSTALGENOMICS, INC., priority 2019, published 2022)

Legend:
[1] = Evaluation of water solubility according to pH; type: physicochemical; settings: thermodynamic from solid
Experimental: Experimental Example 1-1: […] After completion of the stirring, insoluble substances that may remain were removed by first centrifugation and second filtration with 0.22 μm filter. The substances were diluted with organic solvent methanol and analyzed by HPLC for […] of the solubility. […] As the pH increases, the solubility tends to decrease rapidly.

[2] = Evaluation of excipient suitability (related substances on storage at 60° C.); type: physicochemical; design: Total related substances, Initial value: unit not given here; settings: for Total related substances, Severe (1 week): 60° C.
Experimental: The resulting product was stored at 60° C. and the stability of the compound of formula 1 was measured. The measurement of related substances was evaluated according to the guidelines for the evaluation of related substances of the Ministry of Food and Drug Safety, and the results are shown in Table 2.

[3] = Stability after dilution of prepared freeze-dried powder in physiological saline; type: physicochemical; settings: 16% HP-beta-cyclodextrin solution, 60 °C, aqueous with cosolvent or surfactant or cyclodextrin, thermodynamic from solid; in 16% HP-beta-cyclodextrin; read-out: highest solubility
Experimental: Hydroxypropyl beta-cyclodextrin (HP-beta-cyclodextrin) was dissolved in distilled water for injection under stirring at room temperature and heated to 60° C., and the compound of formula 1 was added thereto, stirred and enclosed therein. The liquid injection was sterilized and filtered through 0.22 μm filter paper. The filtered injection solution was filled into a glass vial, cooled at −80° C., and freeze-dried to commercialize.

[4] = tested on: Methicillin-susceptible Staphylococcus aureus strains; assay: Drug susceptibility (MIC) of methicillin-susceptible clinical isolates; type: cell-based; settings: Methicillin-susceptible, n = 103
Experimental: (§1) In order to verify the inhibitory effect of the compound of formula 1 on antibiotic-resistant strains, drug susceptibility was evaluated by treating the compound of formula 1 with Staphylococcus aureus phenotype isolated from each patient. In an in vitro test for antibiotic development, the most important result can be MIC90 (minimum inhibitory concentration required to inhibit the growth of 90% of the total bacterial population). […] Appelbaum at Hershey Hospital who is recognized for its authority in the field of anti-infection worldwide.

[5] = tested on: Methicillin-resistant Staphylococcus aureus (MRSA) strains; assay: Drug susceptibility (MIC) of MRSA clinical isolates; type: cell-based; settings: Methicillin-resistant, n = 100
Experimental: as §1

[6] = tested on: Staphylococcus aureus ATCC 29213 (MSSA) and 13B-382 (MRSA); assay: Pharmacokinetic/pharmacodynamic analysis in neutropenic mouse thigh infection model; type: in vivo, ICR mouse; settings: oral administration
Experimental: (§2) For the compound of formula 1, pharmacokinetic/pharmacodynamic experiments were conducted using a mouse infection model. To this end, experiments were conducted with Staphylococcus aureus ATCC 29213 (MSSA, standard strain) and 13B-382 (MRSA, clinical strain). As a medium, Mueller-Hinton broth or Cation-adjusted Mueller-Hinton broth was used. For the susceptibility test (minimum inhibitory concentration (MIC)), the compound of formula 1 was used.
An aseptic (Specific pathogen free, SPF) female, 6 weeks old (23˜27 g) ICR mouse (Orient Bio Inc, Gapyeong, Korea) was used, and the experiment was carried out in compliance with the regulations and procedures with the permission of the Ethics committees for animal experiments in accordance with the Animal Protection Act and the Laboratory Animal Act. […]
After 24 hours of drug administration, the mouse was euthanized with carbon dioxide gas and its thigh was separated, put in physiological saline, and cut finely with a homogenizer (Kinematica AG/Polytron®). […] The number of viable cells was counted and recorded. The results were expressed as log10 CFU/thigh, and the measurement limit of the number of viable cells in the laboratory was 1×10^2 CFU/thigh.
T/MIC was evaluated as an index to determine the effect of antibiotics in combination with the antimicrobial action and pharmacokinetic results according to the antimicrobial dosage and administration. […]

[7] = tested on: Staphylococcus aureus ATCC 29213 (MSSA, standard strain); assay: Susceptibility test (MIC), standard strain; type: cell-based; settings: Staphylococcus aureus ATCC 29213; read-out: MIC
Experimental: as §2

[8] = tested on: Staphylococcus aureus 13B-382 (MRSA, clinical strain); assay: Susceptibility test (MIC), clinical strain; type: cell-based; settings: Staphylococcus aureus 13B-382, read-out: MIC
Experimental: as §2

[9] = mixed with Beta-Hydroxypropyl cyclodextrin

With `Cc1c(N)cccc1Cn1ccc(OCCc2cccs2)cc1=O` [Compound of formula 1, 1-(3-amino-2-methylbenzyl)-4-(2-thiophen-2-yl-ethoxy)-1H-pyridin-2-one] the solubility at 2 h ([1]; aqueous buffer, aqueous solution pH 3, room temperature) was 6 µg/mL, the solubility at 2 h ([1]; aqueous buffer, aqueous solution pH 7, room temperature) was 2.5 µg/mL and the solubility at 2 h ([1]; aqueous solutions, aqueous buffer, pH 4 to 8) was 2 to 5 µg/mL. The solubility at 2 h ([1]; simulated gastric fluid, aqueous solution pH 1.2, room temperature) was ~1000 µg/mL, the “Total related substances, Initial value” ([2]; Compound of formula 1 alone) was 0.5 and the “Total related substances, Severe (1 week)” value ([2]; Compound of formula 1 alone) was 0.5. For the same compound, the “Total related substances, Initial value” [2, 9] was 0.5, the “Total related substances, Severe (1 week)” value [2, 9] was 0.6 and the “Total related substances, Initial value” ([2]; mixed with Cremophor 40) was 1.6. For the same compound, the “Total related substances, Severe (1 week)” value ([2]; mixed with Cremophor 40) was 3.4, the “Total related substances, Initial value” ([2]; mixed with Glycerin) was 1.4 and the “Total related substances, Severe (1 week)” value ([2]; mixed with Glycerin) was 1.1. The “Total related substances, Initial value” ([2]; mixed with Labrasol) was 6.2, the “Total related substances, Initial value” ([2]; mixed with Oleic acid) was 6.2 and the “Total related substances, Initial value” ([2]; mixed with Olive oil) was 1.1. For the same compound, the “Total related substances, Severe (1 week)” value ([2]; mixed with Olive oil) was 0.7, the “Total related substances, Initial value” ([2]; mixed with PEG) was 1.1 and the “Total related substances, Initial value” ([2]; mixed with PEG 400) was 6.4. The “Total related substances, Severe (1 week)” value ([2]; mixed with PEG 400) was 9.8, the “Total related substances, Initial value” ([2]; mixed with PEG 20,000) was 4.2 and the “Total related substances, Severe (1 week)” value ([2]; mixed with PEG 20,000) was 1. For the same compound, the “Total related substances, Severe (1 week)” value ([2]; mixed with PEG) was 7, the “Total related substances, Initial value” ([2]; mixed with PVA) was 0.9 and the “Total related substances, Initial value” ([2]; mixed with PVA 2,000) was 0.9. For the same compound, the “Total related substances, Severe (1 week)” value ([2]; mixed with PVA 2,000) was 0.6, the “Total related substances, Severe (1 week)” value ([2]; mixed with PVA) was 0.6 and the “Total related substances, Initial value” ([2]; mixed with Poloxamer 407) was 0.9. The “Total related substances, Severe (1 week)” value ([2]; mixed with Poloxamer 407) was 0.5, the “Total related substances, Initial value” ([2]; mixed with Propylene glycol) was 1 and the “Total related substances, Severe (1 week)” value ([2]; mixed with Propylene glycol) was 5. The “Total related substances, Initial value” ([2]; mixed with Solutol HS 15) was 0.7, the “Total related substances, Severe (1 week)” value ([2]; mixed with Solutol HS 15) was 3.8 and the “Total related substances, Initial value” ([2]; mixed with Soybean Oil) was 1.1. The “Total related substances, Severe (1 week)” value ([2]; mixed with Soybean Oil) was 1.4, the “Total related substances, Initial value” ([2]; mixed with Transcutol HP) was 1.9 and the “Total related substances, Severe (1 week)” value ([2]; mixed with Transcutol HP) was 9.1. For the same compound, the “Total related substances, Initial value” ([2]; mixed with Tween 80) was 1.2, the “Total related substances, Severe (1 week)” value ([2]; mixed with Tween 80) was 2.6 and the Stability with excipients ([2]; with soybean oil, olive oil, Tween 80, PEG 20000, PVA, PVA 2000, poloxamer 407, beta-hydroxypropyl cyclodextrin, glycerin) was “relatively stable”. The Solubility [3] was 3000 µg/mL, the “MIC Range” value [4] was 0.06 to 1.0 µg/mL and the MIC50 ([4]; Staphylococcus aureus, read-out: MIC50) was 0.25 µg/mL. The MIC90 ([4]; Staphylococcus aureus, read-out: MIC90) was 0.25 µg/mL, the “MIC Range” value [5] was 0.06 to 1.0 µg/mL and the MIC50 ([5]; Staphylococcus aureus, MRSA, read-out: MIC50) was 0.25 µg/mL. The MIC90 ([5]; Staphylococcus aureus, MRSA, read-out: MIC90) was 0.25 µg/mL, the bacteria eradicated ([6]; T/MIC value approximately 20% or higher) was “more than 99.9%” and the “T/MIC value at which more than 99.9% of bacteria were eradicated” value ([6]; 24 hours) was ≥ 20%. For the same compound, the MIC [7] was 0.25 µg/mL and the MIC [8] was 0.25 µg/mL.
